Test results from patent publication US11793849B2, “Method of Chinese herbal medicine extract used for treating multiple diseases caused by drug resistant bacteria infection” (priority 2016, dated 2023).
Converted amounts (≈) assume the structure as drawn. Like-named read-outs stand apart in the source and are kept apart here.

What was measured:
MDRAB = experiment: MIC determination, microdilution broth method; type: cell-based, Acinetobacter baumannii
Experimental: Determination methods of a Minimal Inhibitory Concentration (MIC) and a Minimum Bactericidal Concentration (MBC) of a test product: the MIC and the MBC of the Pithecellobium clypearia Benth water or ethanol extract to the MDRAB are determined by a microdilution broth method. And it is operated by referring to the microdilution broth method recommended by National Committee for Clinical Laboratory Standards (NCCLS).

ATCC27853 = experiment: MIC determination, control strain; type: cell-based
Experimental: Determination methods of a Minimal Inhibitory Concentration (MIC) and a Minimum Bactericidal Concentration (MBC) of a test product: the MIC and the MBC of the Pithecellobium clypearia Benth water or ethanol extract to the MDRAB are determined by a microdilution broth method.

[1] = single use, 20 MDRABs, EA=10% ethanol extract
[2] = single use, 20 MDRABs, EA=water extract
[3] = single use, 20 MDRABs, section of the 95% ethanol extract

SMILES: CC(C)(O/N=C(\C(=O)N[C@@H]1C(=O)N2C(C(=O)[O-])=C(C[n+]3ccccc3)CS[C@H]12)c1csc(N)n1)C(=O)O [CAZ, Ceftazidime]
- MIC (MDRAB; Acinetobacter baumannii, strain A1, EA=P. clypearia 95% ethanol extract, read-out: single-use MIC): 128 mg/L (≈ 234 µM)
- MIC (MDRAB; Acinetobacter baumannii, strain A2, EA=P. clypearia 95% ethanol extract, read-out: single-use MIC): 512 mg/L (≈ 937 µM)
- MIC (MDRAB; Acinetobacter baumannii, strain A3, EA=P. clypearia 95% ethanol extract, read-out: single-use MIC): 512 mg/L (≈ 937 µM)
- MIC (MDRAB; Acinetobacter baumannii, strain A4, EA=P. clypearia 95% ethanol extract, read-out: single-use MIC): 256 mg/L (≈ 468 µM)
- MIC (MDRAB; Acinetobacter baumannii, strain A5, EA=60% ethanol extract, read-out: MIC): 64 mg/L (≈ 117 µM)
- MIC (MDRAB; Acinetobacter baumannii, strain A5, EA=95% ethanol extract, read-out: MIC): 64 mg/L (≈ 117 µM)
- MIC (MDRAB; Acinetobacter baumannii, strain A5, EA=P. clypearia 95% ethanol extract, read-out: single-use MIC): 64 mg/L (≈ 117 µM)
- MIC (MDRAB; Acinetobacter baumannii, strain A5, single use, EA=10% ethanol extract, read-out: MIC): 64 mg/L (≈ 117 µM)
- MIC (MDRAB; Acinetobacter baumannii, strain A5, single use, EA=water extract, read-out: MIC): 64 mg/L (≈ 117 µM)
- MIC (MDRAB; Acinetobacter baumannii, strain A6, EA=60% ethanol extract, read-out: MIC): > 512 mg/L
- MIC (MDRAB; Acinetobacter baumannii, strain A6, EA=95% ethanol extract, read-out: MIC): > 512 mg/L
- MIC (MDRAB; Acinetobacter baumannii, strain A6, EA=P. clypearia 95% ethanol extract, read-out: single-use MIC): 1020 mg/L (≈ 1870 µM)
- MIC (MDRAB; Acinetobacter baumannii, strain A6, single use, EA=10% ethanol extract, read-out: MIC): > 512 mg/L
- MIC (MDRAB; Acinetobacter baumannii, strain A6, single use, EA=water extract, read-out: MIC): > 512 mg/L
- MIC (MDRAB; Acinetobacter baumannii, strain A7, EA=60% ethanol extract, read-out: MIC): > 512 mg/L
- MIC (MDRAB; Acinetobacter baumannii, strain A7, EA=95% ethanol extract, read-out: MIC): > 512 mg/L
- MIC (MDRAB; Acinetobacter baumannii, strain A7, EA=P. clypearia 95% ethanol extract, read-out: single-use MIC): 1020 mg/L (≈ 1870 µM)
- MIC (MDRAB; Acinetobacter baumannii, strain A7, single use, EA=10% ethanol extract, read-out: MIC): > 512 mg/L
- MIC (MDRAB; Acinetobacter baumannii, strain A7, single use, EA=water extract, read-out: MIC): > 512 mg/L
- MIC (MDRAB; Acinetobacter baumannii, strain A8, EA=P. clypearia 95% ethanol extract, read-out: single-use MIC): 512 mg/L (≈ 937 µM)
- MIC (MDRAB; Acinetobacter baumannii, strain A9, EA=P. clypearia 95% ethanol extract, read-out: single-use MIC): 512 mg/L (≈ 937 µM)
- MIC (MDRAB; Acinetobacter baumannii, strain A10, EA=P. clypearia 95% ethanol extract, read-out: single-use MIC): 512 mg/L (≈ 937 µM)
- MIC (MDRAB; Acinetobacter baumannii, strain A11, EA=P. clypearia 95% ethanol extract, read-out: single-use MIC): 512 mg/L (≈ 937 µM)
- MIC (MDRAB; Acinetobacter baumannii, strain A12, EA=P. clypearia 95% ethanol extract, read-out: single-use MIC): 512 mg/L (≈ 937 µM)
- MIC (MDRAB; Acinetobacter baumannii, strain A13, EA=P. clypearia 95% ethanol extract, read-out: single-use MIC): 256 mg/L (≈ 468 µM)
- MIC (MDRAB; Acinetobacter baumannii, strain A14, EA=P. clypearia 95% ethanol extract, read-out: single-use MIC): 512 mg/L (≈ 937 µM)
- MIC (MDRAB; Acinetobacter baumannii, strain A15, EA=P. clypearia 95% ethanol extract, read-out: single-use MIC): 256 mg/L (≈ 468 µM)
- MIC (MDRAB; Acinetobacter baumannii, strain A16, EA=P. clypearia 95% ethanol extract, read-out: single-use MIC): 512 mg/L (≈ 937 µM)
- MIC (MDRAB; Acinetobacter baumannii, strain A17, EA=P. clypearia 95% ethanol extract, read-out: single-use MIC): 256 mg/L (≈ 468 µM)
- MIC (MDRAB; Acinetobacter baumannii, strain A18, EA=P. clypearia 95% ethanol extract, read-out: single-use MIC): 512 mg/L (≈ 937 µM)
- MIC (MDRAB; Acinetobacter baumannii, strain A19, EA=P. clypearia 95% ethanol extract, read-out: single-use MIC): 256 mg/L (≈ 468 µM)
- MIC (MDRAB; Acinetobacter baumannii, strain A20, EA=P. clypearia 95% ethanol extract, read-out: single-use MIC): 512 mg/L (≈ 937 µM)
- MIC50 (MDRAB; Acinetobacter baumannii, single use, 20 MDRABs, section of the 60% ethanol extract, read-out: MIC50): 512 mg/L (≈ 937 µM)
- MIC90 (MDRAB; Acinetobacter baumannii, single use, 20 MDRABs, section of the 60% ethanol extract, read-out: MIC90): 512 mg/L (≈ 937 µM)
- MIC50 (MDRAB; MDRABs, EA=60% ethanol extract): 512 mg/L (≈ 937 µM)
- MIC90 (MDRAB; MDRABs, EA=60% ethanol extract): 512 mg/L (≈ 937 µM)
- MIC Range (MDRAB; MDRABs, EA=60% ethanol extract): 64 to 512 mg/L
- MIC50 (MDRAB; MDRABs, EA=95% ethanol extract): 512 mg/L (≈ 937 µM)
- MIC90 (MDRAB; MDRABs, EA=95% ethanol extract): 512 mg/L (≈ 937 µM)
- MIC Range (MDRAB; MDRABs, EA=95% ethanol extract): 64 to 512 mg/L
- MIC50 (MDRAB; [1]): 512 mg/L (≈ 937 µM)
- MIC90 (MDRAB; [1]): 512 mg/L (≈ 937 µM)
- MIC Range (MDRAB; [1]): 64 to 512 mg/L
- MIC50 (MDRAB; [2]): 512 mg/L (≈ 937 µM)
- MIC90 (MDRAB; [2]): 512 mg/L (≈ 937 µM)
- MIC Range (MDRAB; [2]): 64 to 512 mg/L
- MIC50 (MDRAB; [3]): 512 mg/L (≈ 937 µM)
- MIC90 (MDRAB; [3]): 512 mg/L (≈ 937 µM)
- MIC (MDRAB; strain A6, single use, EA=10% ethanol extract): 1024 mg/L (≈ 1870 µM)
- MIC (MDRAB; strain A6, single use, EA=water extract): 1024 mg/L (≈ 1870 µM)
- MIC (MDRAB; strain A7, single use, EA=10% ethanol extract): 1024 mg/L (≈ 1870 µM)
- MIC (MDRAB; strain A7, single use, EA=water extract): 1024 mg/L (≈ 1870 µM)
- MIC (ATCC27853; EA=10% ethanol extract, read-out: MIC): 4 mg/L (≈ 7.32 µM)
- MIC (ATCC27853; EA=60% ethanol extract, read-out: MIC): 4 mg/L (≈ 7.32 µM)
- MIC (ATCC27853; EA=95% ethanol extract, read-out: MIC): 4 mg/L (≈ 7.32 µM)
- MIC (ATCC27853; EA=P. clypearia 10% ethanol extract, read-out: MIC (single use)): 4 mg/L (≈ 7.32 µM)
- MIC (ATCC27853; EA=P. clypearia water extract, read-out: MIC (single use)): 4 mg/L (≈ 7.32 µM)
- MIC (ATCC27853; EA=water extract, read-out: MIC): 4 mg/L (≈ 7.32 µM)
- MIC (ATCC27853; single use, EA = 60% ethanol extract, read-out: MIC): 4 mg/L (≈ 7.32 µM)
- MIC (ATCC27853; single use, EA = 95% ethanol extract, read-out: MIC): 4 mg/L (≈ 7.32 µM)
